Laboratory results as given in ChEMBL document CHEMBL5532726, “Somatostatin Receptor Subtype 4 Agonists for Potential Treatment of Alzheimer's Disease and Other Central Nervous System Disorders” (ACS Med Chem Lett, 2024).

Target: Somatostatin receptor type 1 (Homo sapiens, UniProt P30872)
Sequence (P30872 whole entry): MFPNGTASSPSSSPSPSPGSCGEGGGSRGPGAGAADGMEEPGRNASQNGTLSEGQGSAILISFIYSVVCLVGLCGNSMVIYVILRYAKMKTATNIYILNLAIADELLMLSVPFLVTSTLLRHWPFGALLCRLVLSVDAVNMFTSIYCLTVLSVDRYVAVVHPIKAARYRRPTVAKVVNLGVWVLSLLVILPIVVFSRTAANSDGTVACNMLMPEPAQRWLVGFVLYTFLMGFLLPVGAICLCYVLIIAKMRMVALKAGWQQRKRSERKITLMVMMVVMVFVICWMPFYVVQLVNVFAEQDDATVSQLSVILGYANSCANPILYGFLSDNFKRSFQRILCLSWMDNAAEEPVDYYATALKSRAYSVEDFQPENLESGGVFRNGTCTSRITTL

CC(Oc1ccccc1C1CC1)C(=O)N[C@H]1CCNC[C@@H]1F (stereo partly specified)
IC50: > 50.1 µM
